# According to ChEMBL document CHEMBL5370567 (Bioorg Med Chem, 2023):
# Molecular target: T1, G-protein coupled bile acid receptor 1 (Homo sapiens, UniProt Q8TDU6)
# T1 sequence (Q8TDU6 whole entry): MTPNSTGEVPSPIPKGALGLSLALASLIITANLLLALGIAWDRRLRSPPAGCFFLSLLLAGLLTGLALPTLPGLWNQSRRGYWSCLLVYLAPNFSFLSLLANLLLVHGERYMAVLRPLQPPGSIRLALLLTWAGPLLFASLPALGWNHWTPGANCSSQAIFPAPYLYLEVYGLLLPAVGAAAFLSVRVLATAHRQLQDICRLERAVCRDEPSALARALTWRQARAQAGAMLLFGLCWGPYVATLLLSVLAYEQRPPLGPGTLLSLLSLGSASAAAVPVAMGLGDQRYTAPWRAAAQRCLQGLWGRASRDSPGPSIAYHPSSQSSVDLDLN
# Experiment: Positive allosteric modulator activity at human TGR5 expressed in HEK293T cells assessed as increase in cAMP accumulation incubated for 1 hr at 37 degC and further incubated for 1 hr at room temperature by glosensor cAMP accumulation assay
# Assay type: functional, cell-based
row,SMILES,EC50 [µM]
1,CO[C@@H]1C[C@@H]2C[C@H](O)CC[C@]2(C)[C@H]2C[C@H](O)[C@]3(C)[C@@H]([C@H](C)CCC(=O)Oc4ccc5ccccc5c4)CC[C@H]3[C@H]12,> 100
2,CO[C@@H]1C[C@@H]2C[C@H](O)CC[C@]2(C)[C@H]2CC(=O)[C@]3(C)[C@@H]([C@H](C)CCC(=O)OC4CCCC4)CC[C@H]3[C@H]12,23
3,CO[C@@H]1C[C@@H]2C[C@H](O)CC[C@]2(C)[C@H]2C[C@H](O)[C@]3(C)[C@@H]([C@H](C)CCC(=O)OC(C)C)CC[C@H]3[C@H]12,9.8
4,CO[C@@H]1C[C@@H]2C[C@H](O)CC[C@]2(C)[C@H]2C[C@H](O)[C@]3(C)[C@@H]([C@H](C)CCC(=O)OC4CCCC4)CC[C@H]3[C@H]12,21.8
5,CCOC(=O)CC[C@@H](C)[C@H]1CC[C@H]2[C@@H]3[C@H](OC)C[C@@H]4C[C@H](O)CC[C@]4(C)[C@H]3C[C@H](O)[C@]12C,19.8
6,CO[C@@H]1C[C@@H]2C[C@H](O)CC[C@]2(C)[C@H]2C[C@H](O)[C@]3(C)[C@@H]([C@H](C)CCC(=O)OCc4ccccc4)CC[C@H]3[C@H]12,92.5
7,CO[C@@H]1C[C@@H]2C[C@H](O)CC[C@]2(C)[C@H]2CC(=O)[C@]3(C)[C@@H]([C@H](C)CCC(=O)OC4CC4)CC[C@H]3[C@H]12,6.3
8,CO[C@@H]1C[C@@H]2C[C@H](O)CC[C@]2(C)[C@H]2CC(=O)[C@]3(C)[C@@H]([C@H](C)CCC(=O)Oc4ccccc4)CC[C@H]3[C@H]12,5.5
9,CO[C@@H]1C[C@@H]2C[C@H](O)CC[C@]2(C)[C@H]2C[C@H](O)[C@]3(C)[C@@H]([C@H](C)CCC(=O)OCC4CCCC4)CC[C@H]3[C@H]12,25.8
10,CO[C@@H]1C[C@@H]2C[C@H](O)CC[C@]2(C)[C@H]2CC(=O)[C@]3(C)[C@@H]([C@H](C)CCC(=O)Oc4cccc5ccccc45)CC[C@H]3[C@H]12,38
11,CO[C@@H]1C[C@@H]2C[C@H](O)CC[C@]2(C)[C@H]2CC(=O)[C@]3(C)[C@@H]([C@H](C)CCC(=O)OCc4ccccc4)CC[C@H]3[C@H]12,76.5
12,CO[C@@H]1C[C@@H]2C[C@H](O)CC[C@]2(C)[C@H]2CC(=O)[C@]3(C)[C@@H]([C@H](C)CCC(=O)Oc4ccc5ccccc5c4)CC[C@H]3[C@H]12,> 100
13,CO[C@@H]1C[C@@H]2C[C@H](O)CC[C@]2(C)[C@H]2CC(=O)[C@]3(C)[C@@H]([C@H](C)CCC(=O)OCC4CC4)CC[C@H]3[C@H]12,9.5

# Further lines, results first:
row,EC50 [µM],SMILES
1,14.1,CO[C@@H]1C[C@@H]2C[C@H](O)CC[C@]2(C)[C@H]2C[C@H](O)[C@]3(C)[C@@H]([C@H](C)CCC(=O)OCC4CC4)CC[C@H]3[C@H]12
2,31.6,CCOC(=O)CC[C@@H](C)[C@H]1CC[C@H]2[C@@H]3[C@H](OC)C[C@@H]4C[C@H](O)CC[C@]4(C)[C@H]3CC(=O)[C@]12C
3,8,COC(=O)CC[C@@H](C)[C@H]1CC[C@H]2[C@@H]3[C@H](OC)C[C@@H]4C[C@H](O)CC[C@]4(C)[C@H]3C[C@H](O)[C@]12C
4,8.9,CO[C@@H]1C[C@@H]2C[C@H](O)CC[C@]2(C)[C@H]2C[C@H](O)[C@]3(C)[C@@H]([C@H](C)CCC(=O)OC4CC4)CC[C@H]3[C@H]12
5,48.5,CO[C@@H]1C[C@@H]2C[C@H](O)CC[C@]2(C)[C@H]2C[C@H](O)[C@]3(C)[C@@H]([C@H](C)CCC(=O)Oc4cccc5ccccc45)CC[C@H]3[C@H]12
6,12,CO[C@@H]1C[C@@H]2C[C@H](O)CC[C@]2(C)[C@H]2CC(=O)[C@]3(C)[C@@H]([C@H](C)CCC(=O)OC(C)C)CC[C@H]3[C@H]12
7,5.3,COC(=O)CC[C@@H](C)[C@H]1CC[C@H]2[C@@H]3[C@H](OC)C[C@@H]4C[C@H](O)CC[C@]4(C)[C@H]3CC(=O)[C@]12C
8,62,CO[C@@H]1C[C@@H]2C[C@H](O)CC[C@]2(C)[C@H]2CC(=O)[C@]3(C)[C@@H]([C@H](C)CCC(=O)OCC4CCCC4)CC[C@H]3[C@H]12
9,18.5,CO[C@@H]1C[C@@H]2C[C@H](O)CC[C@]2(C)[C@H]2C[C@H](O)[C@]3(C)[C@@H]([C@H](C)CCC(=O)Oc4ccccc4)CC[C@H]3[C@H]12
